Source: patent US12194140B2, “Compositions for topical treatment of microbial infections” (Hennepin Life Sciences, priority 2012, dated 2025)
“Also recorded” adds a separate entry of the source.

Key:
E. coli (Watson strain) = assay: GML and EDTA on the growth of E. coli; type: cell-based; conditions: 24 hours; EDTA 0.05 M to 0.00005 M; GML 100 μg/mL
Procedure: E. coli (Watson strain) was adjusted to I.2×10^7/mL in Todd Hewitt media. […] Cultures were incubated with shaking (200 RPM) for 24 hours, at which time samples were removed for plate counting. To further assess the combined effects of GML and EDTA, the experiment was carried out as above, and the relative effects on the growth of E. coli of EDTA alone or the combination of GML and EDTA were assessed in direct comparison to GML alone.

S. pyogenes (strain 594) = assay: Antibacterial effects of various forms of GML; type: cell-based
Procedure: In order to test for potential differences between the optical isomers, the R form of GML, which is commercially available, was compared to a GML racemic mixture of the R and S forms. […] Antibacterial effects of these forms of GML was assessed on S. pyogenes (strain 594).

[1] = Solubility of Tenofovir in non-aqueous gels; type: physicochemical; conditions: 10 mg/mL
Procedure: Non-aqueous gels comprised of propylene glycol (73.55% w/w), polyethylene glycol 400 (25% w/w), and hydroxypropyl cellulose (1.25% w/w) at a range of pH from 4.0 to 4.5 were prepared. The anti-HIV drug Tenofovir was added to the gels at a concentration of 10 mg/mL to determine if the drug was soluble in the compositions.

In the case of `O=C(O)CN(CCN(CC(=O)O)CC(=O)O)CC(=O)O` [EDTA, ethylenediaminetetraacetic acid], the “anti-bacterial activity on growth of E. coli (CFU/mL)” value (E. coli (Watson strain)) is reported as “inhibited the growth of E. coli somewhat, in a dose-dependent manner; also recorded: inhibited the growth of E. coli to some extent at higher concentrations”.
For `CCCCCCCCCCCC(=O)OC(CO)CO` [Glycerol monolaurate (GML) 2-position], the “activity relative to the mixture of 2-position and ⅓-position GML forms” value (S. pyogenes (strain 594)) was 2 fold.
For `CCCCCCCCCCCC(=O)OC[C@H](O)CO` [R form GML], the “antibacterial activity, R form versus mixture of R and S forms” value (S. pyogenes (strain 594)) was “same antibacterial activity”.
For `C[C@H](Cn1cnc2c(N)ncnc21)OCP(=O)(O)O` [Tenofovir], the “solubility in non-aqueous gel” value ([1]; pH 4.0-4.3) was “not soluble” and the “solubility in non-aqueous gel” value ([1]; pH 4.4 or 4.5) was “soluble”.
For `CCCCCCCCCCCC(=O)OCC(O)CO` (stereo not drawn) [mixture of R and S form GML], the “antibacterial activity, R form versus mixture of R and S forms” value (S. pyogenes (strain 594)) was “same antibacterial activity”.
